How the values were obtained:
[1] = test system: geese; experiment: Deterrence of geese from loafing/roosting on grassy turf (Example 1); format: in vivo
Protocol: A formulation containing 50% wt., basis total formulation, of 9,10-anthraquinone dispersed in water with a small amount of surfactant and thickener was prepared and sprayed onto untreated grassy turf in an area where geese normally loaf or roost. One-third acre of turf was treated with areas of untreated turf bordering on both sides of the treated area. The dispersed anthraquinone particles were applied at a rate of 1 pint/acre (approximately 50 mg/m^2) on the treated area. […] The differences in the effects of the treated area versus the untreated area were easily noted. […] The geese were repelled from the treated area for approximately two weeks until the turf was cut. After cutting, another treatment was applied. The dispersed anthraquinone particles were applied at a rate of 1/2 pint/acre (approximately 25 mg/m^2) in the same manner of treating one strip of turf bordered by untreated turf. […] The test was continued for approximately two weeks. The test was concluded due to snow.

[2] = test system: geese; experiment: Deterrence of geese from 6.2 acre grassy test site (Example 2); format: in vivo
Protocol: A grassy test site having an area of 6.2 acres was selected within the grounds of a large campus style research complex having a substantial flock of geese in residence, which numbers 250-300 geese during the day and as many as 500 geese in the evening hours. In order to determine when daily observations should be made, the site was observed beforehand to determine the times during which the maximum number of geese were on the test site. Observations were conducted at the same time(s) each day in such manner that the behavior of the geese could be observed without disturbance. In addition, the number of droppings in selected areas of the site were counted each day, recorded and then removed from the test area by raking.
Following 10 days observation of the untreated test site, the above-described goose repellent composition was sprayed on the test area using a calibrated spray tank and a fan-shaped head sprayer. The liquid spray contained one gallon of repellent per 140 gallons of water and the rate of application was 2.77 pounds of AQ per acre of the mixture. In the absence of rain, the applied composition fully dried on the blades of grass within 24 hours.

[3] = test system: seagulls; experiment: Deterrence of seagulls from flat roof (Example 3); format: in vivo; conditions: 50% by weight aqueous dispersion of 9,10-anthraquinone
Source text: (§1) In the following examples, the treating material was an aqueous dispersion of small particles of 9,10-anthraquinone containing 50% by weight of the anthraquinone and a small amount of surfactant.
A large number of seagulls regularly roosted on the flat roof of an industrial building in Northern California.

[4] = test system: crows; experiment: Deterrence of crows from flat roof (Example 4); format: in vivo; conditions: 50% by weight aqueous dispersion of 9,10-anthraquinone
Source text: as §1
In Philadelphia Pa., a large number of crows, estimated at over two hundred thousand, regularly roosted on the flat roof of an industrial building.

[5] = test system: pigeons; experiment: Deterrence of pigeons from steel beams of aircraft hangar (Example 5); format: in vivo; conditions: 50% by weight aqueous dispersion of 9,10-anthraquinone
Source text: as §1
Pigeons regularly roosted on the exposed steel beams within a large aircraft hangar in Wilmington Del.

[6] = test system: pigeons; experiment: Deterrence of pigeons from metal beam of sports arena (Example 6); format: in vivo; conditions: four ounces of 50% dispersion in 29 gallons of water
Source text: as §1
Four ounces of a 50% by weight dispersion of anthraquinone in water were mixed with 29 gallons of water. The mixture was sprayed on a twenty foot section of a metal beam in the superstructure of a large sports arena. The treated beam section was open to the atmosphere and had become a roost for pigeons. Prior to the treatment, a section of walkway beneath the beam was cleaned weekly of 50-60 bird droppings. After more than 30 days following treatment of the beam with the above-described dilute anthraquinone dispersion, the pigeons had not returned to the roosting site.

[7] = test system: red-winged blackbirds; experiment: Avian perching deterrent test, red-winged blackbirds (Example 7); format: in vivo, Agelaius phoeniceus
Source text: (§2) Two (2) pens (10×20×6 feet) constructed of wood and aviary wire in a roofed outdoor aviary with a concrete floor were erected. At one end of each pen a water bowl and a food bowl containing the birds' maintenance diet was provided. On the morning of day 1, the test birds were transferred from their holding cages to each of the test pens. In each pen, there was one centrally located perch. At 0800 on the morning of day 2, this perch was removed and 2 test perches were installed, one in each of the corners at the end of the pen away from the food and water. For red-winged blackbirds (Agelaius phoeniceus) and brown-headed cowbirds (Molothrus ater), the perches were made of aluminum rod, 1.2 m long and 1.0 cm in diameter. For fish crows (Corvus ossigragus), the test perches were hollow stainless steel pipe, 1.2-m long and 2.25 cm in diameter. One of the test perches (randomly determined) was coated with a product containing 50% AQ as the active ingredient (the "repellent"), and the other was uncoated. The repellent was applied to the perches with a paint brush 24-48 hours before the test. The repellent was easily applied and appeared somewhat like thinned paint. It covered the metal surfaces very well, with some streaking, and formed an opaque coating that was dry to the touch by the start of the trial. Approximately 7.5 g wet weight was applied to each crow perch and approximately 3.5 g to each blackbird/cowbird perch.
(§3) Test perches remained in the pens until 1500 on day 3 at which time the birds were captured, banded and released. The activity was videotaped in each pen during 3 30-min periods daily: 0800-0830, 1100-1130, and 1400-1430. The videotapes were reviewed to determine bird use of the perches. The number of birds on each of the test perches were recorded at 1-min intervals. Activity and locations of birds not on the perches was also noted. […]
(§4) To analyze responses of the birds to the perch treatment, the mean number of birds on each perch during each of the 6 30-min observation periods was used. The data are expressed as birds/min. […]

[8] = test system: brown-headed cowbirds; experiment: Avian perching deterrent test, brown-headed cowbirds (Example 7); format: in vivo, Molothrus ater
Source text: as §2, with “The repellent was applied to the perches with a paint brush 24-48 hours before the test. The repellent was easily applied and appeared somewhat like thinned paint. It covered the metal surfaces very well, with some streaking, and formed an opaque coating that was dry to the touch by the start of the trial. Approximately 7.5 g wet weight was applied to each crow perch and approximately 3.5 g to each blackbird/cowbird perch.” left out
Test perches remained in the pens until 1500 on day 3 at which time the birds were captured, banded and released. […] The number of birds on each of the test perches were recorded at 1-min intervals. […]
as §4

[9] = test system: fish crows; experiment: Avian perching deterrent test, fish crows (Example 7); format: in vivo, Corvus ossigragus
Source text: as §2, §3, §4

[10] = test system: birds; experiment: Avian perching deterrent test, all 3 test species (Example 7); format: in vivo, red-winged blackbirds, brown-headed cowbirds, fish crows
Source text: as §2
Test perches remained in the pens until 1500 on day 3 at which time the birds were captured, banded and released. The activity was videotaped in each pen during 3 30-min periods daily: 0800-0830, 1100-1130, and 1400-1430. The videotapes were reviewed to determine bird use of the perches. The number of birds on each of the test perches were recorded at 1-min intervals. Activity and locations of birds not on the perches was also noted. Five (5) groups of blackbirds and cowbirds and 4 groups of fish crows were tested. For blackbirds and cowbirds, there were 4 birds in each test group. For fish crows, we used 2 birds per pen.
To analyze responses of the birds to the perch treatment, the mean number of birds on each perch during each of the 6 30-min observation periods was used. The data are expressed as birds/min. A separate 2-way repeated measures analysis of variance for each of the 3 bird species was performed to test the null hypothesis of equal use between the two perches.

[11] = LD50 in northern bobwhite quail; conditions: in vivo, separate study
[12] = test system: birds; experiment: Pen and field observations of bird behavior and adverse effects; format: in vivo
Source text: Pen and field observations of bird behavior were made throughout the studies. In no situation were adverse effects or discomfort to the observed birds. In feeding on rice seeds, the birds squeezed the grain from the hull then ejected the hull from their mouths and ate only the inner grain.

[13] = treated on day 10, following a heavy rain

SMILES: O=C1c2ccccc2C(=O)c2ccccc21 [9,10-anthraquinone]
- repellency ([1]; 1/2 pint/acre (approximately 25 mg/m^2), after cutting, about two weeks): The same repellency was exhibited
- behavior of geese that entered the treated area ([1]; 1 pint/acre (approximately 50 mg/m^2)): immediately ceased eating, exited the treated area, entered a nearby pond and began to wash or rinse themselves
- goose count, second day after application ([2]; 2.77 pounds of AQ per acre, before treatment average about 150 geese): zero
- goose count, day after application ([2]; 2.77 pounds of AQ per acre, before treatment average about 150 geese (45 to 305)): about 110 geese
- period for which number of geese remained quite low in treated area vs surrounding untreated areas ([2]; following the treatment): more than 3 months
- birds' behavior after treatment of the test area ([2]; in vivo): large numbers of birds were observed milling around, but not entering the treated area
- number of geese, days 12-23 ([2]; treated on day 10): only a few geese were observed from time-to-time
- number of geese, day 11 ([2]; treated on day 10 (over 300 geese), 2.77 pounds of AQ per acre): 109 geese
- number of geese, day 12 ([2]; treated on day 10, 2.77 pounds of AQ per acre): zero
- goose count, day 23 [2, 13]: 27 geese
- number of droppings, day 23 [2, 13]: 13 droppings
- number of geese, day 18 ([2]; treated on day 10, very low quantity of droppings): 18 geese
- use of treated roof by gulls [3]: the gulls did not further use the surface for roosting
- return of crows [4]: the crows did not return
- return of pigeons [5]: the pigeons did not return
- time following treatment during which pigeons had not returned to the roosting site [6]: more than 30 days
- use of the treated perch ([7]; 50% AQ coating, SE=0.06, untreated perch 0.86 (SE=0.10), P=0.067): 0.41 birds/min
- use of the untreated perch relative to treated perch ([7]; P=0.067): more than twice
- use of treated perch from day 1 to day 2 ([7]; day x perch interaction P<0.001): decrease use of the treated perch from day 1 to day 2
- use of the treated perch ([8]; 50% AQ coating, SE=0.14, untreated perch 1.70 (SE=0.23), P=0.015): 0.62 birds/min
- bird use of each perch on the second day ([8]; day x perch interaction P=0.222): bird use of each perch declined on the second day
- use of the treated perch ([9]; 50% AQ coating, SE=0.08, untreated perch 1.28 (SE=0.08), P=0.014): 0.64 birds/min
- use of the untreated perch relative to treated perch ([9]; P=0.014): approximately twice
- use of treated perch from day 1 to day 2 ([9]; day x perch interaction P=0.090): decreased use of the treated perch from day 1 to day 2
- preference of test species ([10]; 2-day trials, perch coated with repellent vs untreated): each of the 3 test species displayed a preference for the untreated perch over the one coated with repellent
- signs of illness on videotapes ([10]; e.g. decreased activity, fluffed feathers, vomiting): no sign of illness was observed
- discomfort on the treated perch ([10]; in vivo): no indication that they were uncomfortable or bothered by the feel of the perch was observed
- initial reluctance to use the treated perches ([10]; in vivo): No initial reluctance by birds to use the treated perches was observed
- LD50 [11]: > 2000 mg/kg
- irritation of birds exposed on food ([12]; exposed to anthraquinone on food): no sign of irritation
- effect of treated seeds on birds' behavior or pain ([12]; feeding on treated rice seeds): did not affect the birds' behavior or induce pain
- effect of consumption on feeding behavior ([12]; grams of feed per day): did not affect feeding behavior
- death of test birds ([12]; upon completion of all studies): No test birds died
